Common to all, as to assay type: cell-based
Holding throughout (details): Hepatitis C virus

The subject of one assay is GT3a-S52 replicon. Put plainly: Stable replicon assay, comparison to daclatasvir, GT3a-S52. An excerpt:
The GT3a-S52 replicon plasmid pSGRlucneo-GT3a-S52-HDVR-(ISH) was synthesized by Genscript. This plasmid encodes a GT3a (strain S52, accession GU814264) bicistronic subgenomic replicon encoding the hRluc-Neo reporter gene in the first cistron and NS3-NS5B, driven by an encephalomyocarditis virus (EMCV) internal ribosome entry site (IRES), in the second cistron. The hepatitis delta ribozyme (HDVR) was included after the HCV 3′ NTR followed by a unique SpeI restriction site for linearization. This replicon encodes three cell culture adaptive mutations, P1226S (NS3), D1437H (NS3), and S2210I (NS5A), as described previously (Saeed et al 2012 Antimicrob. Agents Chemother. 54: 1878-1887). The GT4a-ED43 replicon plasmid pSGRlucneo-GT4a-ED43-HDVR-(KG) was synthesized by Genscript. […]
Stable HCV replicon cell lines were grown in complete media (Dulbecco's modified Eagle medium [DMEM], 2 mM L-glutamine, 0.1 mM essential amino acids, 1 mM sodium pyruvate, 10% fetal bovine serum) with the addition 500 μg/ml […] (G418). […] For stable and transient replicon assays, luciferase activity of compound-treated cells was measured relative to DMSO-treated cells after 72 h incubation using RENILLA-GLO™ Luciferase Assay (Promega). […]
A general note: A replicon is a self-replicating genome or part of one, used to study replication in cells.

The test system of assay [1] is HCV genotype 1a replicon, NS5A K24E Q30K. In words: Transient replication assay, GT1a NS5A K24E Q30K.
Assay [2] deals with HCV genotype 1a replicon, NS5A Q30H. In words: Transient replication assay, GT1a NS5A Q30H.
The test system of assay [3] is HCV genotype 1a replicon, NS5A Q30R H58D. Put plainly: Transient replication assay, GT1a NS5A Q30R H58D.

As to `COC(=O)N[C@H](C(=O)N1C[C@]2(CCCOC2)C[C@H]1c1ncc(-c2ccc(-c3ccc4c(ccc5nc([C@@H]6C[C@@H]7CCC[C@@H]7N6C(=O)[C@@H](NC(=O)OC)C(C)C)[nH]c54)c3)cc2)[nH]1)C(C)C` [Compound 16], the half-maximal effective concentration (EC50) in the assay with GT3a-S52 replicon stood at 4.7 nM; in assay [1] it was 7.9 nM; in assay [2] it was 0.006 nM; in assay [3] it was 2.8 nM.
For `COC(=O)N[C@H](C(=O)N1CCC[C@H]1c1nc(-c2ccc(-c3ccc(-c4c[nH]c([C@@H]5CCCN5C(=O)[C@@H](NC(=O)OC)C(C)C)n4)cc3)cc2)c[nH]1)C(C)C` [Daclatasvir, reference compound], in that order: 1.2 nM, 20 nM, 0.8 nM and 838 nM.

One may read the EC50 as the concentration giving half of the maximal effect. A low value points to higher potency in that assay.

Values taken from patent publication US10407445B2, “Hepatitis C virus inhibitors” (ENANTA PHARMACEUTICALS, INC., priority 2013, dated 2019).
